From ChEMBL document CHEMBL1201862, “PubChem BioAssay data set” (2004) come the findings set out here.

Among the test systems are SK-MEL-2; SNB-19; HOP-92; SK-MEL-5; BT-549; UACC-62; OVCAR-4; SW-620; M14; HCC 2998; U-251; MCF7; EKVX; ACHN; HOP-62; UO-31; SK-MEL-28; LOX IMVI; Malme-3M.
What all share (assay): DTP human tumour cell line panel, 48 h

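Values below derive from 48-hour exposures of cells grown in 96-well plates, with endpoints linearly interpolated between the two concentrations bracketing the appropriate inhibition level. GI50 marks 50% less growth.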 Activity calls are given as the source filed them. Cut-off read from the data, not from the text of the source: active = GI50 up to about 1.1 µM and inactive = higher.

The GI50 is the concentration at which growth is held to half of that of the control. Turning to `CC(C)(C)[Si](C)(C)OCC1OC(n2ccc(=O)[nH]c2=O)C(O[Si](C)(C)C(C)(C)C)[C@]12O[C@@H]2CO` (stereo not given in full), the GI50 was 14.7 µM (inactive) in the experiment on SK-MEL-2; 10.3 µM (inactive) with SNB-19; 15 µM (inactive) in the experiment with HOP-92; 14 µM (inactive) in the experiment on SK-MEL-5; 3.9 µM (inactive) in the experiment with BT-549; 16.3 µM (inactive) in the experiment with UACC-62. The GI50 in the experiment with OVCAR-4 was 13.6 µM (inactive); in the experiment on SW-620, 20.2 µM (inactive); in the experiment with M14, 14.4 µM (inactive); in the experiment with HCC 2998, 20.8 µM (inactive); with U-251, 15.6 µM (inactive); in the experiment on MCF7 it was 12.1 µM (inactive). The GI50 was 17 µM (inactive) with EKVX; 11.9 µM (inactive) in the experiment with ACHN; 16 µM (inactive) in the experiment with HOP-62; 8.85 µM (inactive) in the experiment on UO-31; 15.9 µM (inactive) with SK-MEL-28; 16.3 µM (inactive) with LOX IMVI.
`COc1ccccc1/C=C/c1c(N)ncnc1Nc1cccc(Cl)c1`: the GI50 was 18.6 µM (inactive) with SK-MEL-2; 20.6 µM (inactive) in the experiment with SNB-19; 0.243 µM (active) with HOP-92; 22 µM (inactive) in the experiment on SK-MEL-5; 19.7 µM (inactive) with BT-549; 16.6 µM (inactive) with UACC-62. Also, the GI50 in the experiment on OVCAR-4 is 14.6 µM (inactive); with SW-620 it was 34 µM (inactive); in the experiment on M14, 26.5 µM (inactive); in the experiment on HCC 2998, 27.4 µM (inactive); with U-251, 15.7 µM (inactive); in the experiment with Malme-3M, 30.5 µM (inactive). For the same molecule, the GI50 with MCF7 was 25.8 µM (inactive); in the experiment on EKVX it was 16.7 µM (inactive); in the experiment with ACHN it was 6.56 µM (inactive); in the experiment with HOP-62 it was 19.4 µM (inactive); in the experiment on UO-31, 20.6 µM (inactive); in the experiment on SK-MEL-28, 16.4 µM (inactive).
In the case of `Cc1cc(C)c(P2C(=C(O[Si](C(C)C)(C(C)C)C(C)C)C(C)(C)C)C2(c2ccccc2)c2ccccc2)c(C)c1` (stereo not given), the GI50 in the experiment with SK-MEL-2, in the experiment with SNB-19, with HOP-92, in the experiment on SK-MEL-5, in the experiment on BT-549 and with UACC-62 was > 100 µM (inactive) in each case. In addition, the GI50 in the experiment with OVCAR-4, with SW-620, in the experiment on M14, in the experiment on HCC 2998, in the experiment on U-251 and with MCF7 was > 100 µM (inactive) in each case. The GI50 in the experiment on EKVX is > 100 µM (inactive); with ACHN, > 100 µM (inactive); with HOP-62, > 100 µM (inactive); in the experiment with UO-31, 76.9 µM (inactive); in the experiment with SK-MEL-28, > 100 µM (inactive); with LOX IMVI, > 100 µM (inactive).
For the molecule `CCc1nc(N)nc(N)c1-c1ccc(Cc2ccccc2)c([N+](=O)[O-])c1`, the GI50 in the experiment on SK-MEL-2 is 33.9 µM (inactive); with SNB-19, 1.51 µM (inactive); with HOP-92, 1.17 µM (inactive); in the experiment on SK-MEL-5, < 0.01 µM (active); in the experiment on BT-549, 13 µM (inactive); with UACC-62, < 0.0111 µM (active). The GI50 with OVCAR-4 was 16.6 µM (inactive); in the experiment on SW-620 it was < 0.01 µM (active); in the experiment on M14 it was 0.0144 µM (active); in the experiment with HCC 2998, 0.151 µM (active); in the experiment on U-251, < 0.0178 µM (active); in the experiment with MCF7, 0.0484 µM (active). Further, the GI50 was 5.53 µM (inactive) in the experiment on EKVX; < 0.01 µM (active) in the experiment on ACHN; 0.173 µM (active) in the experiment on HOP-62; 0.124 µM (active) in the experiment with UO-31; > 39.5 µM (inactive) with SK-MEL-28; < 0.01 µM (active) in the experiment with LOX IMVI.
On to `Cn1c(=O)oc2cc(C(O)CN3CCN(Cc4ccc5c(c4)OCO5)CC3)ccc21` (stereo not given), for which the GI50 in the experiment on SNB-19, in the experiment with HOP-92, in the experiment on BT-549, with UACC-62, in the experiment on OVCAR-4 and in the experiment with SW-620 was > 100 µM (inactive) throughout. Also, the GI50 with M14, in the experiment on HCC 2998, with U-251, with Malme-3M, with MCF7 and in the experiment on EKVX was > 100 µM (inactive) each time. For the same molecule, the GI50 in the experiment on ACHN, in the experiment with HOP-62, with UO-31, in the experiment with SK-MEL-28 and in the experiment on LOX IMVI was > 100 µM (inactive) each time.
Regarding `C(/C=N/N=C1NCCCCN1)=N\N=C1NCCCCN1`, the GI50 in the experiment on SNB-19, with HOP-92, in the experiment with SK-MEL-5, in the experiment on BT-549, in the experiment with UACC-62 and in the experiment on OVCAR-4 was > 100 µM (inactive) in each case. For the same molecule, the GI50 with SW-620, with M14, with HCC 2998, in the experiment on U-251, in the experiment on Malme-3M and in the experiment with MCF7 was > 100 µM (inactive) throughout. Further, the GI50 in the experiment on EKVX, with ACHN, with HOP-62, in the experiment with UO-31, with SK-MEL-28 and with LOX IMVI was > 100 µM (inactive) throughout.
Consider `CC(CC(C)(C)[N+](C)(C)C)[N+](C)(C)C` (stereo not given), for which the GI50 in the experiment on SNB-19, with HOP-92, in the experiment on SK-MEL-5, with BT-549, in the experiment on UACC-62 and in the experiment on OVCAR-4 was > 100 µM (inactive) each time. Also, the GI50 in the experiment on SW-620 was > 100 µM (inactive); in the experiment on M14, > 100 µM (inactive); in the experiment on HCC 2998, > 100 µM (inactive); with U-251 it was > 100 µM (inactive); in the experiment with Malme-3M, > 10 µM (inactive); in the experiment with MCF7, > 100 µM (inactive). Besides, the GI50 with EKVX, in the experiment with ACHN, with HOP-62, in the experiment with UO-31 and in the experiment with SK-MEL-28 was > 100 µM (inactive) throughout.
As to `CC(=O)O[C@@H]1CC2[C@@H](CCC3Cc4nc5c(nc4C[C@@]32C)CC2CC[C@@H]3C(CC[C@@]4(C)C3CC[C@@H]4C(C)CCCC(C)C)[C@@]2(C)C5)C2C[C@@H]3OC4(CCC(C)CO4)C(C)[C@@H]3[C@]21C` (stereo not given in full), the GI50 was 65.2 µM (inactive) in the experiment on SNB-19; 25.6 µM (inactive) in the experiment on HOP-92; > 100 µM (inactive) in the experiment on SK-MEL-5; > 100 µM (inactive) in the experiment on BT-549; 2.01 µM (inactive) in the experiment on UACC-62; > 100 µM (inactive) in the experiment with OVCAR-4. For the same molecule, the GI50 with SW-620 is > 100 µM (inactive); with M14, > 100 µM (inactive); with HCC 2998, > 100 µM (inactive); with U-251 it was 84.1 µM (inactive); with Malme-3M, > 100 µM (inactive); with MCF7, > 100 µM (inactive). In addition, the GI50 with EKVX was > 100 µM (inactive); with ACHN it was 55.7 µM (inactive); with HOP-62, 22.8 µM (inactive); with SK-MEL-28, > 100 µM (inactive).
`COC(=O)c1cc(OCc2cc(OCc3ccc(Br)cc3)cc(OCc3ccc(Br)cc3)c2)cc(OCc2cc(OCc3ccc(Br)cc3)cc(OCc3ccc(Br)cc3)c2)c1`: the GI50 with SK-MEL-2, with SNB-19, in the experiment on HOP-92, with SK-MEL-5, with BT-549 and in the experiment on UACC-62 was > 100 µM (inactive) in each case. For the same molecule, the GI50 with OVCAR-4, in the experiment with M14, with HCC 2998, in the experiment on U-251, in the experiment on Malme-3M and in the experiment on MCF7 was > 100 µM (inactive) each time. Further, the GI50 in the experiment with EKVX, in the experiment with ACHN, in the experiment on HOP-62, in the experiment with UO-31 and with SK-MEL-28 was > 100 µM (inactive) in each case.
For `CN(C)c1ccc(C2CC(c3ccc4ccccc4c3O)=NN2)cc1` (stereo not given), the GI50 in the experiment with SK-MEL-2 was 35.7 µM (inactive); in the experiment with HOP-92 it was 29.4 µM (inactive); with SK-MEL-5 it was 36 µM (inactive); with BT-549, 39.1 µM (inactive); with UACC-62, 36.2 µM (inactive); with OVCAR-4 it was 94.4 µM (inactive). Further, the GI50 is 32.9 µM (inactive) in the experiment with SW-620; 31.8 µM (inactive) in the experiment with M14; 69.7 µM (inactive) with HCC 2998; 33.6 µM (inactive) with U-251; 51.1 µM (inactive) in the experiment with Malme-3M; 27.7 µM (inactive) in the experiment on MCF7. Moreover, the GI50 in the experiment on ACHN is 38.4 µM (inactive); in the experiment with HOP-62, 31 µM (inactive); with UO-31 it was 30.1 µM (inactive); with SK-MEL-28 it was 63.1 µM (inactive).
As to `O=c1c2cc([N+](=O)[O-])ccc2n2n1Cc1ccccc1C2`, the GI50 is > 100 µM (inactive) in the experiment on SNB-19; > 100 µM (inactive) with HOP-92; 84.3 µM (inactive) in the experiment on SK-MEL-5; 76.2 µM (inactive) in the experiment on BT-549; > 100 µM (inactive) in the experiment on UACC-62; > 100 µM (inactive) with OVCAR-4. For the same molecule, the GI50 with SW-620 was > 100 µM (inactive); with HCC 2998 it was > 100 µM (inactive); in the experiment on U-251 it was > 100 µM (inactive); with Malme-3M, > 100 µM (inactive); in the experiment with MCF7, > 100 µM (inactive); in the experiment on EKVX it was 31.5 µM (inactive). Also, the GI50 was > 100 µM (inactive) in the experiment on ACHN; > 100 µM (inactive) in the experiment with HOP-62; 53.3 µM (inactive) with UO-31; > 100 µM (inactive) with SK-MEL-28; > 100 µM (inactive) with LOX IMVI.
